Test results reported in US20090036492A1, “Novel Cercosporamide Derivative” (priority 2005, published 2009).

Tested on: male KK mice
Assay: Blood glucose lowering effect in diabetic KK mice
Format: in vivo
Conditions: Mus musculus, po, 72 h, 15 to 20 weeks old, feed containing 0.03% of the compound, three days, blood glucose on the 3rd day vs control group, read-out: Blood glucose lowering efficacy (%)
Source text: Six-week-old male KK mice were purchased from CLEA Japan, Inc. and then were fed until 15 to 20 weeks old and affected with diabetes. The mice were individually fed during the adaptation period and the test period, and water and feed (FR2, Funabashi Farm) were freely ingested.
At the start of the experiment, after body weight measurement, blood was collected from the tail vein of the mice into a heparin-coated glass tube and centrifuged, and then plasma was separated. The glucose level in the plasma was measured by Glucoloader GXT (A&T Corp.), and individuals having a blood glucose level of about 350 mg/dl or more were selected. Groups each having 3 to 4 mice were used for the experiment, and the mice were grouped to make the average body weight and the average blood glucose level similar. Each compound was administered to a compound administration group by feeding a mixture with feed containing 0.03% of the compound. A separate group in which the mice were fed only with feed was a control group.
The experiment period (drug administration period) was three days. The grouping day was the 0th day. On the 3rd day, body weight was measured and blood was collected from the tail vein to measure the blood glucose level.
The blood glucose lowering efficacy was determined by the following formula.
Blood glucose lowering efficacy=[(Control group blood glucose level−Compound administration group blood glucose level)/Control group blood glucose level]×100

| SMILES | inhibition in vivo at 0.03 % in feed |
| --- | --- |
| COc1cc(O)c2c(c1C(=O)NCc1c(C)c(C)cc3ccccc13)OC1=CC(O)=C(C(C)=O)C(=O)[C@]12C [Example 54, (9aS)-8-Acetyl-1,7-dihydroxy-3-methoxy-9a-methyl-N-[(2,3-dimethyl-1-naphthyl)methyl]-9-oxo-9,9a-dihydrodibenzo[b,d]furan-4-carboxamide] | 34% |
| CC#CCOc1cc(C)c(CNC(=O)c2c(OC)cc(O)c3c2OC2=CC(O)=C(C(C)=O)C(=O)[C@]23C)c(C)c1C [Example 102, (9aS)-8-Acetyl-N-[4-(2-butynyloxy)-2,3,6-trimethylbenzyl]-1,7-dihydroxy-3-methoxy-9a-methyl-9-oxo-9,9a-dihydrodibenzo[b,d]furan-4-carboxamide] | 63% |
| COc1cc(O)c2c(c1C(=O)NCc1ccc(OCc3ccccc3)c3ccccc13)OC1=CC(O)=C(C(C)=O)C(=O)[C@]12C [Example 104, (9aS)-8-Acetyl-N-{[4-(benzyloxy)-1-naphthyl]methyl}-1,7-dihydroxy-3-methoxy-9a-methyl-9-oxo-9,9a-dihydrodibenzo[b,d]furan-4-carboxamide] | 53% |
| COc1cc(O)c2c(c1C(=O)NCc1c(C)ccc3ccc(Cl)cc13)OC1=CC(O)=C(C(C)=O)C(=O)[C@]12C [Example 181, (9aS)-8-Acetyl-N-[(7-chloro-2-methyl-1-naphthyl)methyl]-1,7-dihydroxy-3-methoxy-9a-methyl-9-oxo-9,9a-dihydrodibenzo[b,d]furan-4-carboxamide] | 45% |
| COc1cc(O)c2c(c1C(=O)NCc1ccc(OCc3ccccc3Cl)c3ccccc13)OC1=CC(O)=C(C(C)=O)C(=O)[C@]12C [Example 147, (9aS)-8-Acetyl-N-({4-[(2-chlorobenzyl)oxy]-1-naphthyl}methyl)-1,7-dihydroxy-3-methoxy-9a-methyl-9-oxo-9,9a-dihydrodibenzo[b,d]furan-4-carboxamide] | 62% |
| CO/N=C(\C)C1=C(O)C=C2Oc3c(C(=O)NCc4c(C)ccc5ccccc45)c(OC)cc(O)c3[C@]2(C)C1=O [Example 87, (9aS)-1,7-Dihydroxy-3-methoxy-8-[(1E)-N-methoxyethaneimidoyl]-9a-methyl-N-[(2-methyl-1-naphthyl)methyl]-9-oxo-9,9a-dihydrodibenzo[b,d]furan-4-carboxamide] | 45% |
| COc1cc(O)c2c(c1C(=O)NCc1c(C)cc(F)c3ccccc13)OC1=CC(O)=C(C(C)=O)C(=O)[C@]12C [Example 180, (9aS)-8-Acetyl-N-[(4-fluoro-2-methyl-1-naphthyl)methyl]-1,7-dihydroxy-3-methoxy-9a-methyl-9-oxo-9,9a-dihydrodibenzo[b,d]furan-4-carboxamide] | 60% |
| COc1cc(O)c2c(c1C(=O)NCc1c(C)cc(NS(=O)(=O)c3cc(C)c(Cl)cc3Cl)cc1C)OC1=CC(O)=C(C(C)=O)C(=O)[C@]12C [Example 140, (9aS)-8-Acetyl-N-(4-{[(2,4-dichloro-5-methylphenyl)sulfonyl]amino}-2,6-dimethylbenzyl)-1,7-dihydroxy-3-methoxy-9a-methyl-9-oxo-9,9a-dihydrodibenzo[b,d]furan-4-carboxamide] | 18% |
| CCc1cc(F)c2ccccc2c1CNC(=O)c1c(OC)cc(O)c2c1OC1=CC(O)=C(C(C)=O)C(=O)[C@]12C [Example 187, (9aS)-8-Acetyl-N-[(2-ethyl-4-fluoro-1-naphthyl)methyl]-1,7-dihydroxy-3-methoxy-9a-methyl-9-oxo-9,9a-dihydrodibenzo[b,d]furan-4-carboxamide] | 44% |
| COc1cc(O)c2c(c1C(=O)NCc1c(C)ccc3ccc(F)cc13)OC1=CC(O)=C(C(C)=O)C(=O)[C@]12C [Example 182, (9aS)-8-Acetyl-N-[(7-fluoro-2-methyl-1-naphthyl)methyl]-1,7-dihydroxy-3-methoxy-9a-methyl-9-oxo-9,9a-dihydrodibenzo[b,d]furan-4-carboxamide] | 50% |
